One series addresses Histone deacetylase 1 (Homo sapiens, UniProt Q13547). Nature of the series: Inhibition of human recombinant HDAC1 after 15 mins by fluorogenic assay. The following applies: read-out: IC50.
Series [1] addresses T1, Estrogen receptor (Homo sapiens, UniProt P03372).
T1 sequence (P03372 whole entry): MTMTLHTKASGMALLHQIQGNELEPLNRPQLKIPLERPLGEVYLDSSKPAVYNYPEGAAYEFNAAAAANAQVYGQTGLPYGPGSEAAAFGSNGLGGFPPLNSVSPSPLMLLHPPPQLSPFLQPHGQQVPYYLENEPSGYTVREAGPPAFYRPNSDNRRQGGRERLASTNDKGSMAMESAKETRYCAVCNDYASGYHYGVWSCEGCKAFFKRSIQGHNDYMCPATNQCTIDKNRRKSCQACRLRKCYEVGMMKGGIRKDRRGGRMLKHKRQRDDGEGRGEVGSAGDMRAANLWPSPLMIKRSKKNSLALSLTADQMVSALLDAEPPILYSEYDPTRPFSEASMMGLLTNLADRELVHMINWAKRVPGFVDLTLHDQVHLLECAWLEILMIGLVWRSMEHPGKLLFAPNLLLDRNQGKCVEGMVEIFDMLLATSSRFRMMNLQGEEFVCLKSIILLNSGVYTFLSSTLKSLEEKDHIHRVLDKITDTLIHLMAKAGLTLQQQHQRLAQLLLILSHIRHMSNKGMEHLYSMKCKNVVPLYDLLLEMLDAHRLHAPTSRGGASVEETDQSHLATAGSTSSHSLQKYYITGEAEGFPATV
Nature of the series: Binding affinity to human ER-alpha ligand binding domain after 2 hrs by competitive fluorometric binding assay.

Series [2] concerns the target T2, Estrogen receptor beta (Homo sapiens, UniProt Q92731). Nature of the series: Binding affinity to human ER-beta ligand binding domain after 2 hrs by competitive fluorometric binding assay.
Series [3] concerns the target T3, Estrogen receptor (Homo sapiens) (UniProt P03372).
T3 sequence (whole entry): T1 sequence (P03372 whole entry)
Nature of the series: Agonist activity at ER-alpha (unknown origin) transfected in HEK293T cells assessed as stimulation of transcriptional activity after 24 hrs by luciferase reporter gene assay relative to 17-beta estradiol. Particulars: HEK-293T. Format: cell-based. (In general: A reporter such as luciferase makes a cellular process visible.)

The target of series [4] is T2, Estrogen receptor beta. The experiment in a line: Agonist activity at ER-beta (unknown origin) transfected in HEK293T cells assessed as stimulation of transcriptional activity after 24 hrs by luciferase reporter gene assay relative to 17-beta estradiol. The series is classed as cell-based. The following applies: HEK-293T.
Series [5] addresses T1, Estrogen receptor. Nature of the series: Antagonist activity at ER-alpha (unknown origin) transfected in HEK293T cells assessed as inhibition of transcriptional activity after 24 hrs by luciferase reporter gene assay. Format: cell-based, HEK-293T.
Series [6] deals with T3, Estrogen receptor (Homo sapiens). Nature of the series: Antagonist activity at ER-alpha (unknown origin) transfected in HEK293T cells assessed as inhibition of transcriptional activity after 24 hrs by luciferase reporter gene assay relative to 17-beta estradiol. Format: cell-based. Particulars: HEK-293T.
For series [7], the target named is T2, Estrogen receptor beta. The experiment in a line: Antagonist activity at ER-beta (unknown origin) transfected in HEK293T cells assessed as inhibition of transcriptional activity after 24 hrs by luciferase reporter gene assay. The series is classed as cell-based, HEK-293T.
Series [8] concerns the target T2, Estrogen receptor beta. The experiment in a line: Antagonist activity at ER-beta (unknown origin) transfected in HEK293T cells assessed as inhibition of transcriptional activity after 24 hrs by luciferase reporter gene assay relative to 17-beta estradiol. The series is classed as cell-based. Particulars: HEK-293T.
The next series relates to MCF7. The experiment in a line: cells. The series is classed as functional, cell-based. The following applies: Homo sapiens, MCF7, 72 h.
The subject of another series is DU-145. Nature of the series: cells. Format: functional, cell-based. Particulars: Homo sapiens, DU-145, 72 h.
A further series concerns Vero. The experiment in a line: cells. Particulars: Chlorocebus sabaeus, 72 h. The series is classed as ADME, cell-based.
A short description of series [9]: Therapeutic index, ratio of IC50 for african green monkey Vero cells to IC50 for human MCF7 cells.
For series [10], the target named is T4, Protein deacetylase HDAC6 (Homo sapiens, UniProt Q9UBN7).
T4 sequence (Q9UBN7 whole entry): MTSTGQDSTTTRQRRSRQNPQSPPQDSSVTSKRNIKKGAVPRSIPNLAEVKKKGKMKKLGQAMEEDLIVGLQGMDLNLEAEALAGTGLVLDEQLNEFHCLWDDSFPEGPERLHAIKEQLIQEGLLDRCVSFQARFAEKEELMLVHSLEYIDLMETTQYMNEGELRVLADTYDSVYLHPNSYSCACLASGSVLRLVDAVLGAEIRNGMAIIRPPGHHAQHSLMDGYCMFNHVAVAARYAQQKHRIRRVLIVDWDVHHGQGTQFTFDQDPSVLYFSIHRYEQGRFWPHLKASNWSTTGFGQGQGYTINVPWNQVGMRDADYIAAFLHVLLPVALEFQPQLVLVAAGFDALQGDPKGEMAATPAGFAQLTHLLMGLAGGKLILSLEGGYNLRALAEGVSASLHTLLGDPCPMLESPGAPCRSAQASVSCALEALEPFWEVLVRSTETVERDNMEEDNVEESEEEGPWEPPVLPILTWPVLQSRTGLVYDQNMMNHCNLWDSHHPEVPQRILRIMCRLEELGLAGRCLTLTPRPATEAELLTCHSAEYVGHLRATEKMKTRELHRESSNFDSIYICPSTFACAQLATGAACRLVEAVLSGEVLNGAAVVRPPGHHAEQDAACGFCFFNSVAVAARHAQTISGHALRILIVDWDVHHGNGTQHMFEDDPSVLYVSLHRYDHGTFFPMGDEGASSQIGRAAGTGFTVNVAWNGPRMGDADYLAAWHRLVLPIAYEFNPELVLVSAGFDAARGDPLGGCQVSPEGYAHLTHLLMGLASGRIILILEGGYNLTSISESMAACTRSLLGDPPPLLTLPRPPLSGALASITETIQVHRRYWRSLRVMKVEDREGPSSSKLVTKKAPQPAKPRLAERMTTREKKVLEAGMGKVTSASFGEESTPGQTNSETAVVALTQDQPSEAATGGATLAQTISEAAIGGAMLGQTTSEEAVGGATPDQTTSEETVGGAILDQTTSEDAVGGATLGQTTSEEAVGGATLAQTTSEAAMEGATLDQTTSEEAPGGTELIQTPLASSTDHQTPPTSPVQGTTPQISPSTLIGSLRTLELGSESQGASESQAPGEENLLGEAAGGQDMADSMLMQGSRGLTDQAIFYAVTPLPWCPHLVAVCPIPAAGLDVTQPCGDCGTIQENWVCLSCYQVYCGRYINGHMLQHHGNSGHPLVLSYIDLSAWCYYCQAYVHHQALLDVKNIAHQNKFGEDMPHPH
Nature of the series: Inhibition of human recombinant HDAC6 after 15 mins by fluorogenic assay. Particulars: read-out: IC50.

Series [11] addresses T1, Estrogen receptor. Nature of the series: Agonist activity at ER-alpha (unknown origin) transfected in HEK293T cells assessed as stimulation of transcriptional activity after 24 hrs by luciferase reporter gene assay. The series is classed as cell-based, HEK-293T.
The target of series [12] is T2, Estrogen receptor beta. The experiment in a line: Agonist activity at ER-beta (unknown origin) transfected in HEK293T cells assessed as stimulation of transcriptional activity after 24 hrs by luciferase reporter gene assay. The series is classed as cell-based, HEK-293T.

Results on six compounds are retold here after ChEMBL document CHEMBL3588800, “Novel Bioactive Hybrid Compound Dual Targeting Estrogen Receptor and Histone Deacetylase for the Treatment of Breast Cancer” (J Med Chem, 2015).

T2 sequence (Q92731 whole entry, the tested form may be a part): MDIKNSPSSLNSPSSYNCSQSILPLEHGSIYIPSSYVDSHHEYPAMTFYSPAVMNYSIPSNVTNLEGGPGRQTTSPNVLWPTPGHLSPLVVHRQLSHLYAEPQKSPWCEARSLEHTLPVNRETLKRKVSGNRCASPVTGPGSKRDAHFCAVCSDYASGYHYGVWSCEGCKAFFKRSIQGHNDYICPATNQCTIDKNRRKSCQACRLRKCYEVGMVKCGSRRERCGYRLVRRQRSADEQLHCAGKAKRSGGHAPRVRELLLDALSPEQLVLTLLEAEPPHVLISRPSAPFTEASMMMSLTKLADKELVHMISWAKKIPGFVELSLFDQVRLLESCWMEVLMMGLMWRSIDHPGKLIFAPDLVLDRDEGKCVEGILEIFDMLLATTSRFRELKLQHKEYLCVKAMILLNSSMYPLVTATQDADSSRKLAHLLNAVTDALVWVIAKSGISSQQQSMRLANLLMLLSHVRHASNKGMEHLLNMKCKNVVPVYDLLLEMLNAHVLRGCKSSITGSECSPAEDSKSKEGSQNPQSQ
Sequence of Histone deacetylase 1 (Q13547 whole entry): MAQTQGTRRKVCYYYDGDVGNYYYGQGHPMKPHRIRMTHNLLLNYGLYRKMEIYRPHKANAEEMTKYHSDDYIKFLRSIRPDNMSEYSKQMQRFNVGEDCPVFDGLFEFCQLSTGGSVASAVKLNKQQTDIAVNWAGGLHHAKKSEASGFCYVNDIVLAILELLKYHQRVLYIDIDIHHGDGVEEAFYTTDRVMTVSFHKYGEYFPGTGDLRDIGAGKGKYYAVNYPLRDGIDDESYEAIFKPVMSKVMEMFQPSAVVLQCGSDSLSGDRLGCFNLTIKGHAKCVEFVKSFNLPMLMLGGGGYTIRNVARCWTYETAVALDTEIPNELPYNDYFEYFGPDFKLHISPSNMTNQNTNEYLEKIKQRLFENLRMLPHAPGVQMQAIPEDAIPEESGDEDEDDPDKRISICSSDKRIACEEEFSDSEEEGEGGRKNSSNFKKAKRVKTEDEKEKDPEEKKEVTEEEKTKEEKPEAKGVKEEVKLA

For the compound `COC(=O)CCCCCCC(=O)Nc1ccc(OS(=O)(=O)C2CC3OC2C(c2ccc(O)cc2)=C3c2ccc(O)cc2)cc1` (stereo not drawn), the IC50 at Histone deacetylase 1 was 0.534 µM; at Estrogen receptor [5] it was 10.8 µM; on Estrogen receptor beta [7], 0.33 µM; in the series with MCF7, 8.1 µM; with DU-145 it was 20.4 µM; in the series on Vero, greater than 100 µM. The IC50 in series [10] was determined as 1.58 µM. The figures for the Ki on Estrogen receptor [1] and at Estrogen receptor beta [2] were 0.0599 µM and 0.756 µM, respectively. Moreover, the Efficacy in [3] was -35%; at Estrogen receptor beta [4], 4%; in [6], 10%; on Estrogen receptor beta [8], 76%. For the same compound, the selectivity ratio in series [9] was greater than 12.3.

On to `COc1cccc(OS(=O)(=O)C2CC3OC2C(c2ccc(NC(=O)CCCCCCC(=O)O)cc2)=C3c2ccc(O)cc2)c1` (racemic), for which the Ki at Estrogen receptor [1] was found to be 4.43 µM; at Estrogen receptor beta [2], 0.0815 µM. Also, the values for the EC50 on Estrogen receptor [11] and on Estrogen receptor beta [12] were 1.16 µM and 1.1 µM, respectively. Besides, the Efficacy came out at 67% in series [3], 100% at Estrogen receptor beta [4], 87% in [6] and 100% at Estrogen receptor beta [8]. Further, the IC50 in the series with MCF7 was 17.9 µM; in the series with DU-145 it was 53.8 µM; in the series with Vero, greater than 100 µM. Besides, the selectivity ratio in series [9] is greater than 5.59.

For the compound `O=C(O)CCCCCCC(=O)Nc1ccc(C2=C(c3ccc(O)cc3)C3CC(S(=O)(=O)Oc4ccc(O)cc4)C2O3)cc1` (racemic), the results for the Ki at Estrogen receptor [1] and on Estrogen receptor beta [2] were 0.133 µM and 0.039 µM, respectively. The EC50 at Estrogen receptor [11] is 2.42 µM; at Estrogen receptor beta [12] it was 13.4 µM. Moreover, the Efficacy in series [3] worked out at 79%; at Estrogen receptor beta [4], 69%; in series [6] it was 99%; at Estrogen receptor beta [8], 23%. Besides, the IC50 at Estrogen receptor beta [7] is 11.7 µM; in the series on MCF7, greater than 100 µM; in the series on DU-145 it was greater than 100 µM; with Vero, greater than 100 µM.

As for `COc1ccccc1OS(=O)(=O)C1CC2OC1C(c1ccc(NC(=O)CCCCCCC(=O)O)cc1)=C2c1ccc(O)cc1` (racemic), the Ki at Estrogen receptor [1] worked out at 0.159 µM; on Estrogen receptor beta [2], 0.0952 µM. Besides, the EC50 on Estrogen receptor [11] stood at 0.016 µM; at Estrogen receptor beta [12], 1.8 µM. Besides, the Efficacy in [3] turned out to be 84%; on Estrogen receptor beta [4] it was 65%; in series [6], 104%; on Estrogen receptor beta [8], 78%. The IC50 on Estrogen receptor beta [7] is 0.29 µM; in the series with MCF7, greater than 100 µM; with DU-145, greater than 100 µM; in the series with Vero, greater than 100 µM.

For `O=C(O)CCCCCCC(=O)Nc1ccc(C2=C(c3ccc(O)cc3)C3CC(S(=O)(=O)Oc4ccc(F)cc4)C2O3)cc1` (racemic), the EC50 on Estrogen receptor [11] came out at 18 µM. For the same compound, the Efficacy is 38% in [3], -13% at Estrogen receptor beta [4], 99% in [6] and 85% on Estrogen receptor beta [8]. The IC50 on Estrogen receptor beta [7] was 0.28 µM; with MCF7, 24.8 µM; in the series on DU-145, greater than 100 µM; with Vero it was greater than 100 µM.

With `O=C(O)CCCCCCC(=O)Nc1ccc(C2=C(c3ccc(O)cc3)C3CC(S(=O)(=O)Oc4ccc(Cl)cc4)C2O3)cc1` (racemic), the IC50 on Histone deacetylase 1 is 0.241 µM; in the series with MCF7, 3.3 µM; in the series with DU-145, greater than 100 µM; in the series with Vero it was greater than 100 µM; in series [10], 1.46 µM. The Ki stood at 0.126 µM on Estrogen receptor [1] and 0.2 µM at Estrogen receptor beta [2]. For the same compound, the EC50 is 0.79 µM on Estrogen receptor [11] and 0.58 µM on Estrogen receptor beta [12]. The Efficacy is 149% in series [3], 44% on Estrogen receptor beta [4], 93% in series [6] and 188% on Estrogen receptor beta [8]. For the same compound, in series [9], the selectivity ratio was greater than 30.3.

A word on the IC50: it is the concentration that inhibits the measured activity by half. The Ki is a dissociation constant, usually derived from enzyme kinetics or from competition with a known ligand. By EC50 is commonly meant the concentration giving half of the maximal effect.
